Where two headings read alike, the source gives them in different places.
Columns and labels:
in vitro = settings: human
[1] = tested on: human beta-coronavirus OC43; test: OC43 Coronavirus Assay in HeLa cells (antiviral, cytopathic effect, cell-titer-glo); assay type: cell-based; settings: Betacoronavirus 1, OC43, HeLa, Table B, OC43 coronavirus in HeLa cells, read-out: EC50
[2] = tested on: SARS-CoV-2 B.1.1.7 lineage; test: microbe, parasite or virus in culture; assay type: cell-based; settings: Severe acute respiratory syndrome coronavirus 2, Table C, SARS-CoV-2 B.1.1.7 in A549-dual_ACE2_TMPRSS2 cells, read-out: A549-dual_ACE2_TMPRSS2 (EC50)
[3] = Cytotoxicity in HeLa cells without addition of OC43 virus (in parallel); settings: human, HeLa cells, without OC43 virus
SARS-Cov-2 3CLpro = SARS-Cov-2 3CLpro (Severe acute respiratory syndrome coronavirus 2, UniProt P0DTD1); test: biochemical; settings: Table A, class symbols, read-out: SARS-Cov-2 (IC50)

SMILES | CC50 (in vitro) [nM] | EC50 ([1]; class symbols) [nM] | EC50 ([2]; class symbols) [nM] | CC50 at 6 days [3] [nM] | IC50 (SARS-Cov-2 3CLpro) [nM] | EC50 ([1]; cells given as a bound) [nM] | EC50 ([2]; cells given as a bound) [nM]
CN(C(=O)[C@H](CC1CC1)NC(=O)C(F)(F)F)[C@@H](CC1CC1)C(=O)N1C[C@@]2(C[C@H]1C#N)Oc1cc(F)cnc1NC2=O [Compound 67] | > 1000 | < 100 | 100 to 1000 | > 10000 | < 20 |  | 
CC(C)C[C@@H](C(=O)N1C[C@@]2(C[C@H]1C#N)Oc1cc(F)cc(F)c1NC2=O)N(C)C(=O)[C@H](Cc1ccc(F)cc1)NC(=O)C(F)(F)F [Compound 69] | > 1000 |  | 100 to 1000 | > 10000 | < 20 | > 10000 | 
COC(=O)N[C@@H](C)C(=O)N(C)[C@@H](CC(C)C)C(=O)N1C[C@@]2(C[C@H]1C#N)Oc1cc(F)cc(F)c1NC2=O [Compound 70] | > 1000 |  | 100 to 1000 | > 10000 | < 20 | > 10000 | 
CC(C)C[C@@H](C(=O)N1C[C@@]2(C[C@H]1C#N)Oc1cc(F)cc(F)c1NC2=O)N(C)C(=O)[C@H](C)NC(=O)C1(F)CC1 [Compound 71] | > 1000 | 100 to 1000 | 100 to 1000 | > 10000 | < 20 |  | 
COC[C@H](NC(=O)C(F)(F)F)C(=O)N(C)[C@@H](CC(C)C)C(=O)N1C[C@@]2(C[C@H]1C#N)Oc1cc(F)cc(F)c1NC2=O [Compound 72] | > 1000 | 100 to 1000 | 100 to 1000 | > 10000 | < 20 |  | 
CN(C(=O)[C@H](CC1CC1)NC(=O)C(F)(F)F)[C@@H](CC1CC1)C(=O)N1C[C@@]2(C[C@H]1C#N)Oc1cnccc1NC2=O [Compound 73] | > 1000 | 100 to 1000 | 100 to 1000 | > 10000 | 20 to 200 |  | 
CN(C(=O)c1cc2c(F)cc(F)c(F)c2[nH]1)[C@@H](CC1CC1)C(=O)N1C[C@@]2(C[C@H]1C#N)Oc1cc(F)cc(F)c1NC2=O [Compound 74] | > 1000 |  | 100 to 1000 | > 10000 | 20 to 200 | > 10000 | 
CN(C(=O)[C@H](CC1CC1)NC(=O)C(F)(F)F)[C@@H](CC1CC1)C(=O)N1C[C@@]2(C[C@H]1C#N)Oc1ccccc1CNC2=O [Compound 81, (S)—N—((S)-1-((2R,5'S)-5′-cyano-3-oxo-4,5-dihydro-3H-spiro[benzo[f][1,4]oxazepine-2,3′-pyrrolidin]-1′-yl)-3-cyclopropyl-1-oxopropan-2-yl)-3-cyclopropyl-N-methyl-2-(2,2,2-trifluoroacetamido)propenamide] | > 1000 | < 100 | < 100 | > 10000 | < 20 |  | 
CN(C(=O)[C@H](CC1CC1)NC(=O)C(F)(F)F)[C@@H](CC1CC1)C(=O)N1C[C@]2(C[C@H]1C#N)C(=O)Nc1ccccc1S2(=O)=O [Compound 82] | > 1000 | 100 to 1000 |  | > 10000 | 20 to 200 |  | > 1000
C[C@@H](NC(=O)C(F)(F)F)C(=O)N(C)[C@@H](CC1CC1)C(=O)N1C[C@@]2(C[C@H]1C#N)Oc1cc(F)cc(F)c1NC2=O [Compound 83] | > 1000 | 100 to 1000 | < 100 | > 10000 | 20 to 200 |  | 
C[C@H](NC(=O)C(F)(F)F)C(=O)N(C)[C@@H](CC1CC1)C(=O)N1C[C@@]2(C[C@H]1C#N)Oc1cccnc1NC2=O [Compound 84] | > 1000 | 1000 to 10000 | < 100 | > 10000 | < 20 |  | 
CN(C(=O)[C@H](CC(F)(F)F)NC(=O)C(F)(F)F)[C@@H](CC1CC1)C(=O)N1C[C@@]2(C[C@H]1C#N)Oc1cc(F)cc(F)c1NC2=O [Compound 85] | > 1000 | 100 to 1000 | < 100 | > 10000 | < 20 |  | 
CN(C(=O)[C@H](CC(F)F)NC(=O)C(F)(F)F)[C@@H](CC1CC1)C(=O)N1C[C@@]2(C[C@H]1C#N)Oc1cc(F)cc(F)c1NC2=O [Compound 86] | > 1000 | 100 to 1000 | < 100 | > 10000 | < 20 |  | 
CN(C(=O)[C@H](CC1CCC1)NC(=O)C(F)(F)F)[C@@H](CC1CC1)C(=O)N1C[C@@]2(C[C@H]1C#N)Oc1cc(F)cc(F)c1NC2=O [Compound 87] | > 1000 | 100 to 1000 | < 100 | > 10000 | < 20 |  | 
CC[C@H](NC(=O)C(F)(F)F)C(=O)N(C)[C@@H](CC1CC1)C(=O)N1C[C@@]2(C[C@H]1C#N)Oc1cc(F)cc(F)c1NC2=O [Compound 88] | > 1000 | 100 to 1000 | < 100 | > 10000 | < 20 |  | 
CN(C(=O)[C@H](CC(C)(C)C)NC(=O)C(F)(F)F)[C@@H](CC1CC1)C(=O)N1C[C@@]2(C[C@H]1C#N)Oc1cc(F)cc(F)c1NC2=O [Compound 89] | > 1000 | < 100 | < 100 | > 10000 | < 20 |  | 
CN(C(=O)[C@@H](Cc1ccc(F)cc1)NC(=O)C(F)(F)F)[C@@H](CC1CC1)C(=O)N1C[C@@]2(C[C@H]1C#N)Oc1cc(F)cc(F)c1NC2=O [Compound 90] | > 1000 | < 100 | < 100 | > 10000 | < 20 |  | 
CN(C(=O)C(C)(C)NC(=O)C(F)(F)F)[C@@H](CC1CC1)C(=O)N1C[C@@]2(C[C@H]1C#N)Oc1cc(F)cc(F)c1NC2=O [Compound 92] | > 1000 | < 100 | < 100 | > 10000 | 200 to 2000 |  | 
CN1C(=O)[C@]2(C[C@@H](C#N)N(C(=O)[C@H](CC3CC3)N(C)C(=O)[C@H](CC3CC3)NC(=O)C(F)(F)F)C2)Oc2cc(F)cc(F)c21 [Compound 93] | > 1000 | < 100 | < 100 | > 10000 | < 20 |  | 
C[C@H](NC(=O)C(F)(F)C(F)(F)F)C(=O)N(C)[C@@H](CC1CC1)C(=O)N1C[C@@]2(C[C@H]1C#N)Oc1cc(F)cc(F)c1NC2=O [Compound 95] | > 1000 | 1000 to 10000 | < 100 | > 10000 | < 20 |  | 
CN(C(=O)c1cc2c(F)cc(F)c(F)c2[nH]1)[C@@H](CC1CC1)C(=O)N1C[C@@]2(C[C@H]1C#N)Oc1cccnc1NC2=O [Compound 96] | > 1000 | 1000 to 10000 | 100 to 1000 | > 10000 | < 20 |  | 
CN(C(=O)c1cc2c(F)cc(F)c(F)c2[nH]1)[C@@H](CC1CC1)C(=O)N1C[C@@]2(C[C@H]1C#N)Oc1cccc(F)c1NC2=O [Compound 97] | > 1000 | < 100 | 100 to 1000 | > 10000 | < 20 |  | 
C[C@H](NC(=O)C(F)(F)F)C(=O)N(C)[C@@H](CC1CC1)C(=O)N1C[C@@]2(C[C@H]1C#N)Oc1cccc(F)c1NC2=O [Compound 98] | > 1000 | 100 to 1000 | < 100 | > 10000 | < 20 |  | 
C[C@H](NC(=O)C(F)(F)F)C(=O)N(C)[C@@H](CC1CC1)C(=O)N1C[C@@]2(C[C@H]1C#N)Oc1c(cccc1C1CC1)NC2=O [Compound 99] | > 1000 | 100 to 1000 | < 100 | > 10000 | < 20 |  | 
CC(C)C[C@](C)(NC(=O)C(F)(F)F)C(=O)N(C)[C@@H](CC1CC1)C(=O)N1C[C@@]2(C[C@H]1C#N)Oc1cc(F)cc(F)c1NC2=O [Compound 100] | > 1000 | < 100 | 100 to 1000 | > 10000 | 20 to 200 |  | 
CN(C(=O)[C@H](CC1CC1)N1CCOC1=O)[C@@H](CC1CC1)C(=O)N1C[C@@]2(C[C@H]1C#N)Oc1cc(F)cc(F)c1NC2=O [Compound 101] | > 1000 | < 100 | 100 to 1000 | > 10000 | 20 to 200 |  | 
COCC[C@H](NC(=O)C(F)(F)F)C(=O)N(C)[C@@H](CC1CC1)C(=O)N1C[C@@]2(C[C@H]1C#N)Oc1cc(F)cc(F)c1NC2=O [Compound 103] | > 1000 | 1000 to 10000 | 100 to 1000 | > 10000 | < 20 |  | 
C[C@H](NC(=O)C(F)(F)F)C(=O)N(C)[C@@H](CC1CC1)C(=O)N1C[C@]2(C[C@H]1C#N)C(=O)NCC2Oc1ccccc1 (stereo partly drawn) [Compound 104] | > 1000 | < 100 | 100 to 1000 | > 10000 | 20 to 200 |  | 
CCN(C(=O)[C@H](C)NC(=O)C(F)(F)F)[C@@H](CC(C)C)C(=O)N1C[C@@]2(C[C@H]1C#N)Oc1cc(F)cc(F)c1NC2=O [Compound 106] | > 1000 | 100 to 1000 | 100 to 1000 | > 10000 | < 20 |  | 
CN(C(=O)[C@@H](CC1CC1)n1cc(C2CC2)nn1)[C@@H](CC1CC1)C(=O)N1C[C@@]2(C[C@H]1C#N)Oc1cc(F)cc(F)c1NC2=O [Compound 107, (R)—N—((S)-1-((2R,5'S)-5′-cyano-5,7-difluoro-3-oxo-3,4-dihydrospiro[benzo[b][1,4]oxazine-2,3′-pyrrolidin]-1′-yl)-3-cyclopropyl-1-oxopropan-2-yl)-3-cyclopropyl-2-(4-cyclopropyl-1H-1,2,3-triazol-1-yl)-N-methylpropanamide] | > 1000 | 1000 to 10000 | 100 to 1000 | > 10000 | < 20 |  | 

Source: patent publication US20240199647A1, “ANTI-VIRAL COMPOUNDS” (Aligos Therapeutics, Inc., priority 2022, published 2024)
